# Legend:
# [1] = Fluorescence/absorption spectrum of probe with TMPyP4 under light irradiation (photosensitised singlet oxygen); format: physicochemical; settings: for increase of fluorescence intensity: 50 μM Si-DMA, 5 μM TMPyP4, 50-minute irradiation 510-550 nm, 0.07 W/cm2
# Description: Further, in the in vitro measurement, unless otherwise specified, all bulk spectrum measurements were performed in a phosphate buffered saline (PBS) having a pH of 7.5 without Ca and Mg or spectral grade methanol. The absorption spectrum and fluorescence spectrum in the ground state were measured using the Shimadzu UV-3100 and Horiba FluoroMax-4, respectively. The bulk irradiation was performed using a xenon light source (LAX-C100, Asahi Spectra Co., Ltd.) and a wavelength filter (BA510-550, Olympus Corporation).
# The concentration of Si-DMA was 50 μM, and the concentration of TMPyP4 was 5 μM. The light irradiation was performed using a 510- to 550-nm wavelength ray at an intensity of 0.07 W/cm^2 under magnetic stirring so as to generate singlet oxygen.
# In FIGS. 1a) and 1c), the black arrows denote changes in absorption by peroxidation (solid line) of the anthracene structure and disaggregation of hydrogen aggregate (broken line).
# Subsequently, Si-DMA was reacted with singlet oxygen, thereby forming Si-DMEP; as a result, photoinduced electron transfer was inhibited, thereby increasing the fluorescence intensity (Φfl=0.17). In methanol, the fluorescence intensity increased about 18 times (in methanol), and about 22 times (in PBS) (FIGS. 1b) and 1d); red), and a loss of the anthracene structure was observed (FIG. 1a); black arrow).
# HeLa cells = test: Viable cell imaging / localization in organelle; format: cell-based; settings: Si-DMA 20 nM / 100 nM, co-staining with Mito Tracker Green FM
# Description: A treatment requiring incubation of less than two hours was performed using a serum-free culture medium containing 20 mM of HEPES, and a treatment requiring incubation of four hours or more was performed using a blood serum-containing medium containing 20 mM of HEPES so as to maintain the cell viability. To label mitochondria, Mito Tracker® Green FM was diluted to 50 nM, and incubated for 30 minutes. Further, 10000 MW of dextran (A488- and A647-dextran) labeled with Alexa Fluor® 488 or Alexa Fluor® 647 was diluted to 50 μg/mL, and incubated for 24 hours, thereby staining lysosome.
# Subsequently, a quick protocol provided by Molecular Probe® for introducing CellROX Green was followed. […] As a result, as previously reported, the conversion of 5-ALA into protoporphyrin IX (PpIX) in the mitochondria was confirmed by the fluorescence luminescence of PpIX.
# In order to monitor an increase in fluorescence upon light irradiation on Si-DMA of Example 1, irradiation on reactive oxygen species was performed while monitoring the probe using an IX81 inverted fluorescence microscope (Olympus Corporation) and 640-nm CW laser (Coherent). […] The images of luminescence were collected and recorded by an EMCCD camera (Evolve 512; Roper Scientific) via a dichroic beam splitter (DI02-R635; Semrock) and a bandpass filter (HQ690/70; Chroma). […]
# [2] = Selectivity test against various reactive oxygen species; format: physicochemical; settings: 5 μM in methanol:PBS pH 7.4 1:1, 10 minutes in dark
# Description: A test was performed to confirm whether Si-DMA of Example 1 causes no self-oxidation of dye and is selectively responsive to singlet oxygen.
# However, formation of aggregates decreases the effective concentration of the dye, thereby decreasing the reaction speed of Si-DMA. Therefore, a 5-μM Si-DMA solution was first prepared using a mixed solvent containing methanol and a pH 7.4 PBS buffer solution mixed at 1:1. In this solution, Si-DMA was present as a monomer. Subsequently, 10-mM solutions of various reactive oxygen species (ROS)(^1O2, O2.^−, H2O2, HOCl, ROO., and .OH) were prepared by adding the following additives to the 5-μM Si-DMA solution obtained above.
# 5. ROO.: 10 mM 2,2-azobis(2-amidinopropane)dihydrochloride
# Under intense magnetic stirring, each Si-DMA solution containing reactive oxygen species (ROS) was stored for 10 minutes in a dark room. […]
smiles,measurement,setting,value
Cc1c2ccccc2c(C)c2cc(C3=C4C=CC(=[N+](C)C)C=C4[Si](C)(C)c4cc(N(C)C)ccc43)ccc12 [Si-DMA],stability (color fading) under light irradiation,[1]; after 900 seconds,color fading was not observed
same,increase of fluorescence intensity,[1]; in PBS,about 22 times
same,increase of fluorescence intensity,[1]; in methanol,about 18 times
same,change of fluorescence on light irradiation,[1]; in the absence of TMPyP4,did not increase
same,intracellular localization,HeLa cells,selectively localized in mitochondria
same,fluorescence intensity in the presence of reactive oxygen species,"[2]; other reactive oxygen species (O2.-, H2O2, HOCl, ROO., .OH)",no increase in fluorescence was observed
same,fluorescence intensity in the presence of reactive oxygen species,[2]; singlet oxygen (10 mM NaOCl and 10 mM H2O2),significantly increased

# From US10564164B2, “Fluorescent probe, singlet oxygen detection agent, and singlet oxygen detection method” (Osaka University, priority 2014, dated 2020)
